The source of these data is paper PMC12281142, “A potent phenylalkylamine disrupts mycobacterial membrane bioenergetics and augments bactericidal activity of bedaquiline” (iScience, 2025).

The test system of experiment [1] is M. bovis BCG. Format: cell-based, Mycobacterium bovis BCG.
Experiment [2] relates to Mtb H37Rv. To be noted: drug sensitive and resistant strains of Mtb H37Rv; cited from earlier work.

On to `CCCCCCCCC(C#N)(CCCN(C)CCc1ccc(OC)c(OC)c1)c1ccc(OC)c(OC)c1` (centres unmarked) [PhA2], for which the spontaneous mutation frequency in experiment [1] is on record as < 10^−9 /CFU.

With `COc1ccc(CCN(C)CCCC(C#N)(c2ccc(OC)c(OC)c2)C(C)C)cc1OC` (centres unmarked) [VP, verapamil, reference compound], the “decrease in BDQ MIC caused by VP” value in experiment [2] is given as 20 fold.
